Assay results from ChEMBL document CHEMBL5465560, “Selectivity Literature for EUbOPEN Chemogenomic Library” (2024).

Legend:
[1] = molecular target: Dual specificity protein kinase CLK2 (Homo sapiens, UniProt P49760); assay: Selectivity interaction (KinomeScan (DiscoverX)) EUB0000595a CLK2; details: at 10 µM
[2] = molecular target: T1, Dual specificity mitogen-activated protein kinase kinase 6 (Homo sapiens) (UniProt P52564); assay: Selectivity interaction (KinomeScan (DiscoverX)) EUB0000695a MAP2K6; details: at 100 nM
T1 sequence (whole entry): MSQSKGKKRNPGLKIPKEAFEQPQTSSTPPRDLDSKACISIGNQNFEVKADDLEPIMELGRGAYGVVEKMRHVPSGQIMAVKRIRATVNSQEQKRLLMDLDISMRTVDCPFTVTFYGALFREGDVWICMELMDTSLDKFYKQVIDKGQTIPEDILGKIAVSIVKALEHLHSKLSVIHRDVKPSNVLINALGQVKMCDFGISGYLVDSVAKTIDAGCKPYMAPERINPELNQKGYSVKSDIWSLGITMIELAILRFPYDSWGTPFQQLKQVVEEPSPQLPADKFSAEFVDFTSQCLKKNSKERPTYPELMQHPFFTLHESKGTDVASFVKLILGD

Mu-type opioid receptor = Mu-type opioid receptor (Homo sapiens, UniProt P35372); assay: Selectivity interaction (GPCR panel (PDSP screen)) EUB0001079a OPRM1; details: at 10 µM
Sequence of Mu-type opioid receptor (P35372 whole entry): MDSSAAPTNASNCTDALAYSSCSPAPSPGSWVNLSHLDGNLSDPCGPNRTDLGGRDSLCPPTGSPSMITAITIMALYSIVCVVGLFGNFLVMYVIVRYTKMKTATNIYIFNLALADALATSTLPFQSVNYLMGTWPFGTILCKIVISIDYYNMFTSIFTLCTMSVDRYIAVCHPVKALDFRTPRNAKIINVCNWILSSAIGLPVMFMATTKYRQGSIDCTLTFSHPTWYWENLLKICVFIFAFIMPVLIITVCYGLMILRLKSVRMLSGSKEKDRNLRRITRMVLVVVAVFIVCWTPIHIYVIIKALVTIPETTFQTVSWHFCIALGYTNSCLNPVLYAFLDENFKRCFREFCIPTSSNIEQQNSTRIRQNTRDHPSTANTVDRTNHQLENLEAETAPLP

[3] = molecular target: Histone-lysine N-methyltransferase 2C (Homo sapiens) (UniProt Q8NEZ4); assay: Selectivity interaction (Transferase panel (protein, RNA, and DNA methyltransferases. and EP300 (acetyltransferase))) EUB0000270b MLL3; details: at 10 µM
[4] = molecular target: T2, Serine/threonine-protein kinase Chk1 (Homo sapiens) (UniProt O14757); assay: Selectivity interaction (Upstate Kinase Profiler service (Millipore)) EUB0000056c CHEK1; details: at 1 µM
T2 sequence (whole entry): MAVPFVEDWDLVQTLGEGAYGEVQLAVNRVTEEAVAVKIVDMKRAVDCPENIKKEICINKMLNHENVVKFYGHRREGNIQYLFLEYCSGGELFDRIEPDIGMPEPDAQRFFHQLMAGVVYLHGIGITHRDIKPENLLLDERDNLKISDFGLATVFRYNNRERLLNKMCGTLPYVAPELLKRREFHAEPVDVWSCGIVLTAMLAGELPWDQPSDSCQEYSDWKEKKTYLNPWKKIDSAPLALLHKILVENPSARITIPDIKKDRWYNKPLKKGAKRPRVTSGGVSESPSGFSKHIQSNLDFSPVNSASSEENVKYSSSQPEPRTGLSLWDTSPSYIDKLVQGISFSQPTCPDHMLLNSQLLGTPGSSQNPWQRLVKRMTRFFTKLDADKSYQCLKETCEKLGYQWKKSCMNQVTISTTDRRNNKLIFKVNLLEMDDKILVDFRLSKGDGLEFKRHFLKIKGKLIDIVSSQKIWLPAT

[5] = molecular target: T3, Receptor-interacting serine/threonine-protein kinase 4 (Homo sapiens) (UniProt P57078); assay: Selectivity interaction (KinomeScan (DiscoverX)) EUB0000607a RIPK4; details: at 10 µM
T3 sequence (whole entry): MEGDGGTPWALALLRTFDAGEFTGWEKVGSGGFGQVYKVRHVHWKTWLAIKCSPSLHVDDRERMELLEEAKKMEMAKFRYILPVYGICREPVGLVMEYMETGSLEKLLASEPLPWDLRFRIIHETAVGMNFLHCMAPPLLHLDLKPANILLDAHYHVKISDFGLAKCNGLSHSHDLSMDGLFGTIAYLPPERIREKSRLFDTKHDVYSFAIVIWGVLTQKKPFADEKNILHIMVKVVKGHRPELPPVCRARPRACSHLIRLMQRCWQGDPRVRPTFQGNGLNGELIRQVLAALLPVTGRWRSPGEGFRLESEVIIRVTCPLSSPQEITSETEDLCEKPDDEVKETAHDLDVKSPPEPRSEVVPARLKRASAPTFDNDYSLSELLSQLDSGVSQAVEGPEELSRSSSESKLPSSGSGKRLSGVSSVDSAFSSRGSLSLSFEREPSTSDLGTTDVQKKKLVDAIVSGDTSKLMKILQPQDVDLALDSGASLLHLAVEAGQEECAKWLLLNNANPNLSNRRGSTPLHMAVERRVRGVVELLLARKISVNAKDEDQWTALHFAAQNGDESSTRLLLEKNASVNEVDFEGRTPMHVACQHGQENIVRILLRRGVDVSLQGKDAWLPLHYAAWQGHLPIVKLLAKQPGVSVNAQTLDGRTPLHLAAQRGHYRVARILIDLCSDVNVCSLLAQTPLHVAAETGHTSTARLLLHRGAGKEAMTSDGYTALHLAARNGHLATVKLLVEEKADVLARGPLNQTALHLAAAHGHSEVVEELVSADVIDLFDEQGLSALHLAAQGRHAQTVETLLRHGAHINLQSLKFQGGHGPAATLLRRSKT

[6] = molecular target: Fibroblast growth factor receptor 1 (Homo sapiens, UniProt P11362); assay: Selectivity interaction (KinomeScan (DiscoverX)) EUB0000092b FGFR1; details: at 10 µM
Sequence of Fibroblast growth factor receptor 1 (P11362 22-822 limits assumed): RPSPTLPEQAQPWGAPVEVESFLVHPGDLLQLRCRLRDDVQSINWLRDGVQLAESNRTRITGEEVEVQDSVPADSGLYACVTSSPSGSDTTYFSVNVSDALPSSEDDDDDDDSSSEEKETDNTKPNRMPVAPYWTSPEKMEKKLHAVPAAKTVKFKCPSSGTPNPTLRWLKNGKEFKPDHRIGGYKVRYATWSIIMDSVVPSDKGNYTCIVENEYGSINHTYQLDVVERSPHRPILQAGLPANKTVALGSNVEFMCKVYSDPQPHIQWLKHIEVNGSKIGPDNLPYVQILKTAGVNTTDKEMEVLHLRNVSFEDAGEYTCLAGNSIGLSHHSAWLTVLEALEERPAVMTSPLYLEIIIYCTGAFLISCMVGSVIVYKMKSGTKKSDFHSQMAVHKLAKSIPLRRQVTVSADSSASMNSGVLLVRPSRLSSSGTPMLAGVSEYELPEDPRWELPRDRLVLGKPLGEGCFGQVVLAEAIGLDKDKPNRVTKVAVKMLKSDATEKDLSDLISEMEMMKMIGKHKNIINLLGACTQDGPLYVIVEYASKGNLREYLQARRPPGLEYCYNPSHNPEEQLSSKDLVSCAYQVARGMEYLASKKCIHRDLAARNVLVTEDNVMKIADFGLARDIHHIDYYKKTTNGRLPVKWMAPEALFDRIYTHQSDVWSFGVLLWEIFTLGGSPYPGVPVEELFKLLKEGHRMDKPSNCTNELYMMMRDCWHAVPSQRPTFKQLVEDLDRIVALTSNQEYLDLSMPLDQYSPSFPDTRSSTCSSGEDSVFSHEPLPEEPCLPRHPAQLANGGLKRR

[7] = molecular target: Macrophage colony-stimulating factor 1 receptor (Homo sapiens) (UniProt P07333); assay: Selectivity interaction (Ambit KINOMEscan and KiNATiv profiling in Jurkat cells) EUB0000090b CSF1R; type: cell-based; details: at 1 µM
Sequence of Macrophage colony-stimulating factor 1 receptor (Homo sapiens) (P07333 whole entry): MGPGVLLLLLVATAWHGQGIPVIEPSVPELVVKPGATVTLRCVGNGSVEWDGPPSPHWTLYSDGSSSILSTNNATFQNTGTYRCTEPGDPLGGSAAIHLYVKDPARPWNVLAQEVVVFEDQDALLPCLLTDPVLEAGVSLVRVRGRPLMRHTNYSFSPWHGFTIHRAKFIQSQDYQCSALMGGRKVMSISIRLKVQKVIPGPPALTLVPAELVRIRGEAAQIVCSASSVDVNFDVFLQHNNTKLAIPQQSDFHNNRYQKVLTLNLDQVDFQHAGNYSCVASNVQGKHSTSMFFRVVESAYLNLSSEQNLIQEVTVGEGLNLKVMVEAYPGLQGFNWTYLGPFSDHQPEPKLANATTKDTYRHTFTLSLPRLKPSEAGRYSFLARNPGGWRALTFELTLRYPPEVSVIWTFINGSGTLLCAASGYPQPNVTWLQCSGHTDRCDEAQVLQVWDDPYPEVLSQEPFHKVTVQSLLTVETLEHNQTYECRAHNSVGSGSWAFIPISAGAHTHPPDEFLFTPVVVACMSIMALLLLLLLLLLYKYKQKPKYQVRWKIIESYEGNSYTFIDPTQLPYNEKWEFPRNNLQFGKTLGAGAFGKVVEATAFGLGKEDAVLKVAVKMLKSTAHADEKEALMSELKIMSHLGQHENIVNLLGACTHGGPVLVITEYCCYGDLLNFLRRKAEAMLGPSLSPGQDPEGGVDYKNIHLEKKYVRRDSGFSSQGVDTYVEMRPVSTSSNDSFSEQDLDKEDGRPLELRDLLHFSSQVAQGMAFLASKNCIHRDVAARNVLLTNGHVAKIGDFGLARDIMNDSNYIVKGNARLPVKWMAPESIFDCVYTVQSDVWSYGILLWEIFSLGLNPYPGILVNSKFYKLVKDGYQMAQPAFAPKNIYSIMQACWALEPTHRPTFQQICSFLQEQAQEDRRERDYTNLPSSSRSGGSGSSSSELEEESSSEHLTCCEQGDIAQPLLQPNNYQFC

[8] = molecular target: T4, Myotonin-protein kinase (Homo sapiens) (UniProt Q09013); assay: Selectivity interaction (Ambit KINOMEscan and KiNATiv profiling in Jurkat cells) EUB0000090b DMPK; type: cell-based; details: at 1 µM
T4 sequence (whole entry): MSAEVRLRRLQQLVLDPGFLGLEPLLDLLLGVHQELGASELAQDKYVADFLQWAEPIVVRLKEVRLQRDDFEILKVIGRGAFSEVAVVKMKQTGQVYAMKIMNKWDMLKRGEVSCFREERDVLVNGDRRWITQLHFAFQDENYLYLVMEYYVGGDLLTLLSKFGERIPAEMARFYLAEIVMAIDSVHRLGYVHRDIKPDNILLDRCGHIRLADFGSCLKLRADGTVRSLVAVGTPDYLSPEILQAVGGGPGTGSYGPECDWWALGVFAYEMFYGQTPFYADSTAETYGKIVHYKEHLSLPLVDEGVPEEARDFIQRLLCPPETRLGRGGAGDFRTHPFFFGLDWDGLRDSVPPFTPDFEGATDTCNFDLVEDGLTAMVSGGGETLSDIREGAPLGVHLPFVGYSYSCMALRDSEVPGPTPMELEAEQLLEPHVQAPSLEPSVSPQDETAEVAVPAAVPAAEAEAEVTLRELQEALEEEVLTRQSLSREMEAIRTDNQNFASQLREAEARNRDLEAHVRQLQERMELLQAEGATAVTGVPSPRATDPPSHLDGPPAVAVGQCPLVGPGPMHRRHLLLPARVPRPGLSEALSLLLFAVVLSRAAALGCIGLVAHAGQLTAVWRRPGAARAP

Sequence of Dual specificity protein kinase CLK2 (P49760 whole entry, looked up): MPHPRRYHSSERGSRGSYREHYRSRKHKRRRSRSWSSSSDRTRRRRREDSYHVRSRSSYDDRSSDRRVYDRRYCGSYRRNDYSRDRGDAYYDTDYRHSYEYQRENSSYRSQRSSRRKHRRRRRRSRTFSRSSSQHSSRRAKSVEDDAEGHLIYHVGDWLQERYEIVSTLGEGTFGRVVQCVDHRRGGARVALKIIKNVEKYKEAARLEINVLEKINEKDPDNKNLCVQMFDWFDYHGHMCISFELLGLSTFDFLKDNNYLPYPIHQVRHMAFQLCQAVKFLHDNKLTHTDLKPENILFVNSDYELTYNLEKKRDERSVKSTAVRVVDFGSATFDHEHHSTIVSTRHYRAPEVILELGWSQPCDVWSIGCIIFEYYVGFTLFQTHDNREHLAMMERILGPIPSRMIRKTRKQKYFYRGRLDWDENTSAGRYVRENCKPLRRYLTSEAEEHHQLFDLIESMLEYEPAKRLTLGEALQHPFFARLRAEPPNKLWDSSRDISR

COCC(=O)NC/C=C/c1ccc2ncnc(Nc3ccc(Oc4ccc(C)nc4)c(C)c3)c2c1 [CP-724714]
% of control [1]: 75%

Cc1cc(F)c(C(=O)Nc2cccc(-c3nncn3C(C)C)n2)cc1-n1cnc(C2CC2)c1
% of control [2]: 100%

Nc1cnc(N2CCc3cc(S(=O)(=O)Nc4c(F)cc(Cl)cc4F)cc(N4CCCC4=O)c32)nc1 [TP-020n]
% of inhibition (Mu-type opioid receptor): -1.31%

Cc1cc(CN)cc(C)c1-c1ncn(C)c1-c1cncn1C
% activity [3]: > 80%

Cc1ccc(-c2ccc3c(ccc4sc5c(c43)NC[C@@H](C)NC5=O)n2)cn1
% of inhibition [4]: 12%

CNC(=O)Nc1ccc(-c2nc(N3CC4CCC(C3)O4)c3cnn(C4CCC5(CC4)OCCO5)c3n2)cc1
% of control [5]: 98%

CCC(=O)N1CCN(c2ccc(-n3c(=O)ccc4cnc5ccc(-c6cnc7ccccc7c6)cc5c43)cc2C(F)(F)F)CC1
% of control [6]: 96%

CN(C)C/C=C/C(=O)Nc1ccc(C(=O)N2CCCC(Nc3ncc(Cl)c(-c4c[nH]c5ccccc45)n3)C2)cc1 (centres undefined)
% of control [7]: 86%
% of control [8]: 91%
